Measured values reported in US20110059154A1, “CCR5 ANTAGONISTS AS PROPHYLACTICS FOR PREVENTING HIV INFECTION AND METHODS OF INHIBITING TRANSMISSION OF SAME” (priority 2008, published 2011).
Structures can show the parent of a compound that is named as a salt.

Key:
HIV-1BaL = assay: microbe, parasite or virus in culture; assay type: cell-based; conditions: Human immunodeficiency virus 1, TZM-bl, read-out: Inhibition of HIV Infection (TZM-bL cells using luciferase reporter) IC50-RS
[1] = Compound toxicity, MTT dye reduction; assay type: cell-based; conditions: human, TZM-bL cells, mean ± D (n independent experiments), read-out: Cytotoxicity CC50 (TZM-bL)
Protocol: Determination of compound toxicity. The viability of cells (TZM-bI) and following treatment with the compound was determined by the principle of MTT dye reduction (see references cited in Fletcher et. al.). All data are expressed as the percentage of viability for compound-treated wells compared to untreated cell control wells, and the 50% cytotoxic concentration (CC50) is defined as the concentration of the drug at which the cell/tissue viability was reduced to 50% of the drug-free control value.

[2] = Thermogravimetric analysis (TGA), thermal stability; assay type: physicochemical
Protocol: Thermogravimetric analysis (TGA) was conducted with a TGA Q500 from TA instruments. A typical experiment involved heating the material in a platinum pan under a nitrogen purge from 25° C. to 350° C. at 10° C. per minute. Data was analyzed using the Universal using the Universal Analysis software program from TA Instruments.
Thermogravimetric analysis (TGA) was performed on each form to evaluate the thermal stability and presence of any volatiles in the sample (FIG. 3). The onset of thermal degradation is estimated using the derivative of weigh loss curve and was measured as 276° C. and 270° C. for forms 1 and 2 respectively.

[3] = Competition slurry experiment, relative thermodynamic stability of forms 1 and 2; assay type: physicochemical; conditions: slurry in 2-propanol and in MTBE, seeded with both forms, 1 week; PXRD and DSC
Protocol: To assess the relative thermodynamic stability of forms 1 and 2, a competition slurry experiment was performed. In this experiment, the as received amorphous material was slurried in one vial containing 2-propanol and another containing MTBE. Seeds of both form 1 and form 2 were added to both vials and stirring continued for 1 week. The solid material was filtered from each vial and analyzed with PXRD and DSC.

[4] = Initial solubility assessment in solvents useful in making vaginal devices; assay type: physicochemical
Description: Initial solubility assessments were made of Compounds 28A, 23 and 5L to evaluate compatibility in various solvents useful in making vaginal devices.

## CO/N=C(\c1ccc(Br)cc1)C1CCN(C2(C)CCN(C(=O)c3c(C)ncnc3C)CC2)CC1 [Compound 5L Tartrate]
HIV-1BaL
  IC50: 0.119 ± 0.0924 µM
[1]
  CC50: 476 ± 117 µM

## CO/N=C(\c1ccc(Br)cc1)C1CCN(C2(C)CCN(C(=O)c3c(C)ncnc3C)CC2)CC1 [form 1]
[2]
  onset of thermal degradation: 276 °C
[3]
  relative thermodynamic stability of forms 1 and 2: more thermodynamically stable form

## CCC[C@@H](c1ccc(C(F)(F)F)cc1)N1CCN(C2(C)CCN(C(=O)c3c(C)ncnc3C)CC2)C[C@@H]1C [Compound 28A]
[4]; PEG 400, 1.12 g/cm^3
  Solubility (percent in parentheses): ≥ 3.4%
[4]; PG (propyleneglycol), 1.038 g/cm^3
  Solubility (percent in parentheses): ≥ 3.6%
[4]; organic solvent or mixture, PEG 400
  solubility: ≥ 39 mg/mL
[4]; organic solvent or mixture, PG (propyleneglycol)
  solubility: ≥ 38.4 mg/mL
[4]; pH 4.4, aqueous buffer, pH 4.4 citrate buffer
  solubility: ≥ 11.4 mg/mL
[4]; pH 7.5, aqueous buffer, pH 7.5 phosphate buffer
  solubility: < 0.33 mg/mL
[4]; water, DI H20
  solubility: ≥ 3.85 mg/mL
